Among the data in patent US20220177538A1, “CO-AGONISTS AT GLP-1 AND GIP RECEPTORS SUITABLE FOR ORAL DELIVERY” (Novo Nordisk A/S, priority 2020, published 2022) are EC50 values, retold here.

One test deals with human GLP-1 receptor (Homo sapiens, UniProt P43220). Nature of the test: In vitro functional potency, CRE luciferase reporter, whole BHK cells (hGLP-1R). To be noted: BHK CRE luc2P hGLP-1R cells. The format is cell-based. More on the design: expressed in transfected cells; host or cells: BHK (parent line BHKTS13), clone BHK CRE luc2P hGLP-1R. As for the experimental part: (§1) The in vitro functional potency is the measure of target receptor activation in a whole cell assay.
(§2) In vitro functional potency was determined by measuring the response of the target receptor in a reporter gene assay in individual cell lines. […] When the respective receptor is activated, it results in the production of cAMP, which in turn results in expression of the luciferase protein. When assay incubation is completed, luciferase substrate (luciferin) is added resulting in the enzymatic conversion of luciferin to oxyluciferin and producing bioluminescence. The luminescence is measured as the readout for the assay.
(§3) The cells lines used in these assays were BHK cells with BHKTS13 as a parent cell line. The cell lines were derived from a clone containing the CRE luciferase element and were established by further transfection with the respective human receptor to obtain the relevant cell line: BHK CRE luc2P hGLP-1R or BHK CRE luc2P hGIPR. The cells were cultured at 37° C. with 5% CO2 in Cell Culture Medium. They were aliquoted and stored in liquid nitrogen. The cells were kept in continuous culture and were seeded out the day before each assay.
(§4) GLP-1R Cell Culture Medium consisted of DMEM medium with 10% FBS, 500 µg/mL G418, and 300 µg/mL hygromycin. GIPR Cell Culture Medium consisted of DMEM medium with 10% FBS, 400 µg/mL G418, and 300 µg/mL hygromycin. Assay Buffer consisted of DMEM w/o phenol red, 10 mM Hepes, 1× Glutamax. 1% ovalbumin, and 0.1% Pluronic F-68 with the addition of HSA at twice the final assay concentration.
(§5) 1) Cells were plated at 5000 cells/well and incubated overnight in the assay plate. 2) Cells were washed once in DPBS. 3) Stocks of the test compounds and reference compounds in concentrations ranging from […] were diluted 1:150 in Assay Buffer. Compounds were then diluted 1:10 in column 1 of a 96 deep well dilution plate and then carried across the row creating a 3.5 fold, 12 point dilution curve. 4) Assay Buffer (50 μl aliquot) with or without HSA was added to each well in the assay plate. 5) A 50 μl aliquot of compound or blank was transferred from the dilution plate to the assay plate containing the Assay Buffer with or without HSA. 6) The assay plate was incubated for 3 h in a 5% CO2 incubator at 37° C. 7) The cells were washed once with DPBS. 8) A 100 μl aliquot of DPBS was added to each well of the assay plate. 9) A 100 μl aliquot of steadylite plus reagent (light sensitive) was added to each well of the assay plate. 10) Each assay plate was covered with aluminum foil to protect it from light and shaken at 250 RPM for 30 min at room temperature. 11) Each assay plate was read in a microtiter plate reader.
(§6) The data from the microtiter plate reader was first regressed in an Excel in order to calculate the x-axis, log scale concentrations based on the individual test compound's stock concentration and the dilutions of the assay. […] The software performs a non-linear regression (log(agonist) vs response). A minimum of two replicates was measured for each sample. The reported values are averages of the replicates.
(Reporter assays use an easily measured gene product as a stand-in for the process of interest.)

For a further test, the target named is T1, human GIP receptor (Homo sapiens, UniProt P48546).
T1 construct: expressed in transfected cells; host or cells: BHK (parent line BHKTS13), clone BHK CRE luc2P hGIPR
T1 sequence (P48546 22-466): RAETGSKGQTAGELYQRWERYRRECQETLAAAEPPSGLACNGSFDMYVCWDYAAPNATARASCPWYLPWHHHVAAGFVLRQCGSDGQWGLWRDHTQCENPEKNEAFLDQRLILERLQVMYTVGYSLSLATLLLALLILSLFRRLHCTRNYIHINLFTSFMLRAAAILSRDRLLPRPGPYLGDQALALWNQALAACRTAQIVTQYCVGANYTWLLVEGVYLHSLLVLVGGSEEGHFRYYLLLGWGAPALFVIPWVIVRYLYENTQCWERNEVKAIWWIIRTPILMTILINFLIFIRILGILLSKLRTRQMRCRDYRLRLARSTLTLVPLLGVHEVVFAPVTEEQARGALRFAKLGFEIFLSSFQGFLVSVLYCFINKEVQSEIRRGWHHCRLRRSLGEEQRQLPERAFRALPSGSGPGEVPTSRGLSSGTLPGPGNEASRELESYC
Nature of the test: In vitro functional potency, CRE luciferase reporter, whole BHK cells (hGIPR). The class given is cell-based. As to conditions: BHK CRE luc2P hGIPR cells. As for the experimental part: as §1, §2, §3, §4, §5, §6

The mark [1] stands for this setting: 0% HSA, read-out: hGLP-1R, CRE Luc 0% HSA EC50.
[2] abbreviates: hGLP-1R, CRE Luc 1% HSA EC50, 1% HSA.
Where [3] appears, read: 0% HSA, read-out: hGIPR, CRE Luc 0% HSA EC50.
Setting [4] is: hGIPR, CRE Luc 1% HSA EC50, 1% HSA.

By EC50 is commonly meant the midpoint of the concentration-response curve.

Read-outs that look alike come from different tables or passages of the source. Starred links: 1 amine or outer side, 2 acyl side, 3 side chain; linkers in the order of their positions; H or OH if unused. Non-standard residues stand in square brackets, D forms with d. Residues, ends and D or L forms follow the SMILES beside them. Groups on a side chain read outwards from the residue. *: point of attachment. C18 diacid = O=C(O)CCCCCCCCCCCCCCCCC(=O)*; γGlu = O=C(O)[C@H](CCC(=O)[*:2])N[*:1]; εLys = N[C@@H](CCCCN[*:1])C(=O)[*:2]; Aib = CC(C)(N)C(=O)O

Sequence of human GLP-1 receptor (P43220 24-463): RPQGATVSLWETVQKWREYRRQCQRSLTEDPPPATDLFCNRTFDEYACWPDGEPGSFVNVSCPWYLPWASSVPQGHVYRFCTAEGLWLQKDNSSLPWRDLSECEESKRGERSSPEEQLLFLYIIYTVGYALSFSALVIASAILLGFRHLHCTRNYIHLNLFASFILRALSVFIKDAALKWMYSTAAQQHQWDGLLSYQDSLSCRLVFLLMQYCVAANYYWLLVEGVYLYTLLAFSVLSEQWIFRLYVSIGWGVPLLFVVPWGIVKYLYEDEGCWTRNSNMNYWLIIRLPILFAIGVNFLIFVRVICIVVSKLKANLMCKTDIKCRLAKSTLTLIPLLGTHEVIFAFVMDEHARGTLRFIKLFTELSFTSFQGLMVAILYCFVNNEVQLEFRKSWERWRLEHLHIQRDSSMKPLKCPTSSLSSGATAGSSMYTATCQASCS

With `CC[C@H](C)[C@H](NC(=O)[C@H](Cc1ccccc1)NC(=O)[C@H](CCC(=O)O)NC(=O)[C@H](CCCNC(=N)N)NC(=O)[C@H](C)NC(=O)[C@H](C)NC(=O)[C@H](CCC(N)=O)NC(=O)[C@H](CCCCNC(=O)[C@@H](N)CCCCNC(=O)[C@@H](N)CCCCNC(=O)CC[C@H](NC(=O)CCCCCCCCCCCCCCCCC(=O)O)C(=O)O)NC(=O)[C@H](CCC(=O)O)NC(=O)[C@H](CC(C)C)NC(=O)[C@H](CC(C)C)NC(=O)[C@@H](NC(=O)[C@H](CO)NC(=O)[C@H](Cc1ccc(O)cc1)NC(=O)[C@H](CC(=O)O)NC(=O)[C@H](CO)NC(=O)[C@@H](NC(=O)[C@H](Cc1ccccc1)NC(=O)[C@@H](NC(=O)CNC(=O)[C@H](CCC(=O)O)NC(=O)C(C)(C)NC(=O)[C@@H](N)Cc1ccc(O)cc1)[C@@H](C)O)[C@@H](C)O)[C@@H](C)CC)C(=O)N[C@@H](CC(N)=O)C(=O)N[C@@H](Cc1c[nH]c2ccccc12)C(=O)N[C@@H](CC(C)C)C(=O)N[C@@H](CC(C)C)C(=O)N[C@@H](C)C(=O)NCC(=O)O` [Compound 18] (H-Y[Aib]EGTFTSDYSILLEK([εLys-εLys-γGlu-C18 diacid])QAAREFINWLLAG-OH), the 50% effective concentration (EC50) was 0.0197 nM on human GLP-1 receptor (setting [1]), 0.226 nM on human GLP-1 receptor (setting [2]), 0.0209 nM on human GIP receptor (setting [3]) and 0.285 nM at human GIP receptor (setting [4]).
On the same counts, the results for `CC[C@H](C)[C@H](NC(=O)[C@H](Cc1ccccc1)NC(=O)[C@H](CCC(=O)O)NC(=O)[C@H](CCCNC(=N)N)NC(=O)[C@H](C)NC(=O)[C@H](C)NC(=O)[C@H](CCC(N)=O)NC(=O)[C@H](CCCCNC(=O)[C@@H](N)CCCCNC(=O)[C@@H](N)CCCCNC(=O)CC[C@H](NC(=O)CCCCCCCCCCCCCCCCC(=O)O)C(=O)O)NC(=O)[C@H](CCC(=O)O)NC(=O)[C@H](CC(C)C)NC(=O)[C@H](CC(C)C)NC(=O)[C@@H](NC(=O)[C@H](CO)NC(=O)[C@H](Cc1ccc(O)cc1)NC(=O)[C@H](CC(=O)O)NC(=O)[C@H](CO)NC(=O)[C@@H](NC(=O)[C@H](Cc1ccccc1)NC(=O)[C@@H](NC(=O)CNC(=O)[C@H](CCC(=O)O)NC(=O)C(C)(C)NC(=O)[C@@H](N)Cc1ccc(O)cc1)[C@@H](C)O)[C@@H](C)O)[C@@H](C)CC)C(=O)N[C@@H](CC(N)=O)C(=O)N[C@@H](Cc1c[nH]c2ccccc12)C(=O)N[C@@H](CC(C)C)C(=O)N[C@@H](CC(C)C)C(=O)N[C@@H](C)C(=O)NCC(=O)NCC(=O)N1CCC[C@H]1C(=O)O` [Compound 19] (H-Y[Aib]EGTFTSDYSILLEK([εLys-εLys-γGlu-C18 diacid])QAAREFINWLLAGGP-OH) are 0.0086 nM, 0.365 nM, 0.0065 nM and 0.275 nM.
As for `CC[C@H](C)[C@H](NC(=O)[C@H](Cc1ccccc1)NC(=O)[C@H](CCC(=O)O)NC(=O)[C@H](CCCNC(=N)N)NC(=O)[C@H](C)NC(=O)[C@H](C)NC(=O)[C@H](CCC(N)=O)NC(=O)[C@H](CCCCNC(=O)[C@@H](N)CCCCNC(=O)[C@@H](N)CCCCNC(=O)CC[C@H](NC(=O)CCCCCCCCCCCCCCCCC(=O)O)C(=O)O)NC(=O)[C@H](CCC(=O)O)NC(=O)[C@H](CC(C)C)NC(=O)[C@H](CC(C)C)NC(=O)[C@@H](NC(=O)[C@H](CO)NC(=O)[C@H](Cc1ccc(O)cc1)NC(=O)[C@H](CC(=O)O)NC(=O)[C@H](CO)NC(=O)[C@@H](NC(=O)[C@H](Cc1ccccc1)NC(=O)[C@@H](NC(=O)CNC(=O)[C@H](CCC(=O)O)NC(=O)C(C)(C)NC(=O)[C@@H](N)Cc1ccc(O)cc1)[C@@H](C)O)[C@@H](C)O)[C@@H](C)CC)C(=O)N[C@@H](CC(N)=O)C(=O)N[C@@H](Cc1c[nH]c2ccccc12)C(=O)N[C@@H](CC(C)C)C(=O)N[C@@H](CC(C)C)C(=O)N[C@@H](C)C(=O)NCC(=O)NCC(=O)N1CCC[C@H]1C(=O)N[C@@H](CO)C(=O)N[C@@H](CO)C(=O)NCC(=O)N[C@@H](C)C(=O)O` [Compound 21] (H-Y[Aib]EGTFTSDYSILLEK([εLys-εLys-γGlu-C18 diacid])QAAREFINWLLAGGPSSGA-OH), the EC50 came out at 0.0057 nM at human GLP-1 receptor (hGLP-1R, CRE Luc 0% HSA EC50, 0% HSA); 0.118 nM on human GLP-1 receptor (setting [2]); 0.0054 nM on human GIP receptor (hGIPR, CRE Luc 0% HSA EC50, 0% HSA); 0.131 nM on human GIP receptor (setting [4]).
With `CC[C@H](C)[C@H](NC(=O)[C@H](CO)NC(=O)[C@H](Cc1ccc(O)cc1)NC(=O)[C@H](CC(=O)O)NC(=O)[C@H](CO)NC(=O)[C@@H](NC(=O)[C@H](Cc1ccccc1)NC(=O)[C@@H](NC(=O)CNC(=O)[C@H](CCC(=O)O)NC(=O)C(C)(C)NC(=O)[C@@H](N)Cc1ccc(O)cc1)[C@@H](C)O)[C@@H](C)O)C(=O)N[C@@H](CC(C)C)C(=O)N[C@@H](CC(C)C)C(=O)N[C@@H](CCC(=O)O)C(=O)N[C@@H](CCCCNC(=O)[C@@H](N)CCCCNC(=O)[C@@H](N)CCCCNC(=O)CC[C@H](NC(=O)CCCCCCCCCCCCCCCCC(=O)O)C(=O)O)C(=O)N[C@@H](CCC(N)=O)C(=O)N[C@@H](C)C(=O)N[C@@H](C)C(=O)N[C@@H](CCCNC(=N)N)C(=O)N[C@@H](CCC(=O)O)C(=O)N[C@@H](Cc1ccccc1)C(=O)N[C@H](C(=O)N[C@@H](CC(N)=O)C(=O)N[C@@H](Cc1c[nH]c2ccccc12)C(=O)N[C@@H](CC(C)C)C(=O)N[C@@H](CC(C)C)C(=O)N[C@@H](C)C(=O)NCC(=O)NCC(=O)N1CCC[C@H]1C(=O)N[C@@H](CO)C(=O)N[C@@H](CO)C(=O)NCC(=O)N[C@@H](C)C(=O)N1CCC[C@H]1C(=O)N1CCC[C@H]1C(=O)N1CCC[C@H]1C(=O)N[C@@H](CO)C(=O)O)C(C)C` [Compound 22] (H-Y[Aib]EGTFTSDYSILLEK([εLys-εLys-γGlu-C18 diacid])QAAREFVNWLLAGGPSSGAPPPS-OH), the EC50 was 0.0028 nM at human GLP-1 receptor (setting [1]), 0.171 nM on human GLP-1 receptor (setting [2]), 0.0062 nM on human GIP receptor (setting [3]) and 0.169 nM at human GIP receptor (setting [4]).
